For ten compounds, IC50 results are on record in patent publication US20240360165A1, “INHIBITORS OF CYCLIN DEPENDENT KINASE 7 (CDK7)” (Syros Pharmaceuticals, Inc., priority 2016, published 2024).

One experiment relates to A673 cells. The experiment can be described thus: Inhibition of proliferation of A673 cells (CyQUANT, 72 hour). Type of experiment: cell-based, human. Conditions: A673 cells, 72 hour, CyQUANT, read-out: Inhibition of Proliferation of A673 Cells (calculated IC50). The protocol: A673 cells are a cell line derived from human […] Ewing's sarcoma. Representative compounds of the invention were tested at different concentrations (from […]; 0.5 log serial dilutions) for their ability to inhibit the proliferation of A673 cells. Known CDK inhibitors dinaciclib or N-((1S,3R)-3-((5-chloro-4-(1H-indol-3-yl)pyrimidin-2-yl)amino)cyclohexyl)-5-((E)-4-(dimethylamino)but-2-enamido)picolinamide and triptolide were used as positive controls. Cells were grown in Dulbecco's Modified Eagle's Medium, +10% FBS+1 mM Sodium Pyruvate. The cells were cultured at 37° C. in a humidified chamber in the presence of 5% CO2. Proliferation assays were conducted over a 72 hour time period. CyQUANT® (Life Technologies, Chicago, IL USA) was used to assess the anti-proliferative effects of the compounds following manufacturer's directions and utilizing the reagents supplied with the CyQUANT® kit.

In another experiment the target is CDK2/Cyclin E1 complex (Homo sapiens, UniProt P24941). Kind of experiment: CDK2 inhibition assay (Caliper/LabChip EZ Reader kinase assay). Type of experiment: biochemical. The note with it: Table 1; CDK2/Cyclin E1 0.5 nM, ATP 2 mM, 35 min at 27° C. The method, then:
(§1) Compounds of the invention were assayed for inhibition of CDK7, CDK9, CDK12, and CDK2 activity at Biortus Biosciences (Jiangyin, Jiangsu Province, P.R. of China) using kinase assays for each CDK developed with a Caliper/LabChip EZ Reader (Perkin Elmer, Waltham, MA).
(§2) Furthermore, the CDK9 inhibition assay used CDK9/Cyclin T1 complex (8 nM) and “5-FAM-CDK9tide” peptide substrate (2 μM, synthesized fluorophore-labeled peptide with the following sequence: 5-FAM-GSRTPMY-NH2 where 5-FAM is defined above and NH2 signifies a C-terminal amide) with 10 mM MgCl2 in the buffer composition listed above. […] Additionally, the CDK2 inhibition assay used CDK2/Cyclin E1 complex (0.5 nM) and “5-FAM-CDK7tide” ([…]) as defined above, with 2 mM MgCl2 in the buffer composition listed above.

For experiment [1], the target named is CDK7/Cyclin H/MAT1 complex (Homo sapiens, UniProt P50613). Kind of experiment: CDK7 inhibition assay (Caliper/LabChip EZ Reader kinase assay). In kind it is biochemical. Conditions: Table 1; CDK7/Cyclin H/MAT1 6 nM, ATP 2 mM, 35 min at 27° C. The protocol:
as §1, §2

The next experiment has as its target CDK9/Cyclin T1 complex (Homo sapiens, UniProt P50750). Kind of experiment: CDK9 inhibition assay (Caliper/LabChip EZ Reader kinase assay). Type of experiment: biochemical. Conditions: Table 1; CDK9/Cyclin T1 8 nM, ATP 2 mM, 15 min at 27° C. The protocol: as §1, §2
Experiment [2] has as its target T1, CDK12 (aa686-1082)/Cyclin K complex (Homo sapiens, UniProt Q9NYV4).
T1 construct: CDK12 (aa686-1082)/Cyclin K complex
The experiment can be described thus: CDK12 inhibition assay (Caliper/LabChip EZ Reader kinase assay). In kind it is biochemical. The note with it: Table 1; CDK12 (aa686-1082)/Cyclin K 50 nM, ATP 2 mM, 3 hr at 27° C. The method, then:
as §1, §2

Read-outs that look alike come from different tables or passages of the source.

Sequence of CDK7/Cyclin H/MAT1 complex (P50613 whole entry, species assumed): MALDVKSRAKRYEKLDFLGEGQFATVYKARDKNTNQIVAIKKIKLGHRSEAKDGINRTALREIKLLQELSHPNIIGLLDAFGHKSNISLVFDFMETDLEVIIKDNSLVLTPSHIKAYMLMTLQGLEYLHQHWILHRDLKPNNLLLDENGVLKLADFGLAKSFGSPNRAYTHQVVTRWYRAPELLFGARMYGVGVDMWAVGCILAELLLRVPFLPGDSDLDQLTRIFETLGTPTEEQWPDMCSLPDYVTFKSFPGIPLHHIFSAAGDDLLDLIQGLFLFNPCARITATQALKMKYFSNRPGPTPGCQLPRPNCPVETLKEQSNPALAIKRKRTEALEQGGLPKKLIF
Sequence of CDK7/Cyclin H/MAT1 complex (P51946 whole entry partner, species assumed): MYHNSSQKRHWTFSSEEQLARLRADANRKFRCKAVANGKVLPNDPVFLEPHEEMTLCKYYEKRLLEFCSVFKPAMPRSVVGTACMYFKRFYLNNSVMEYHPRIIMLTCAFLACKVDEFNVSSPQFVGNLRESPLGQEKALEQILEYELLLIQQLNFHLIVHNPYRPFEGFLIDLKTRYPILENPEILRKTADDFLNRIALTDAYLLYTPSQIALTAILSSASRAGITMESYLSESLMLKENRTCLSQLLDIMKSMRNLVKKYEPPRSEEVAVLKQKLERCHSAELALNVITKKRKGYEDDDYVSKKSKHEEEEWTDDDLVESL
Sequence of CDK7/Cyclin H/MAT1 complex (P51948 whole entry partner, species assumed): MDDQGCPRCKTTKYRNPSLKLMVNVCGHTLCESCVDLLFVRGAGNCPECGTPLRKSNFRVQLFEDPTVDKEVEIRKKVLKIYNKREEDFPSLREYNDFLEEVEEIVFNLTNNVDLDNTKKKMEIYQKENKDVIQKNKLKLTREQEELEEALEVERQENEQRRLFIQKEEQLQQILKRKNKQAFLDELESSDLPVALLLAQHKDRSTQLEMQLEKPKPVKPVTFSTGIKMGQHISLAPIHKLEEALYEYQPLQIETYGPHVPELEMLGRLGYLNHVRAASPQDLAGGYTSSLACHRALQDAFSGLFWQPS
Sequence of CDK9/Cyclin T1 complex (P50750 whole entry, species assumed, the tested form may be a part): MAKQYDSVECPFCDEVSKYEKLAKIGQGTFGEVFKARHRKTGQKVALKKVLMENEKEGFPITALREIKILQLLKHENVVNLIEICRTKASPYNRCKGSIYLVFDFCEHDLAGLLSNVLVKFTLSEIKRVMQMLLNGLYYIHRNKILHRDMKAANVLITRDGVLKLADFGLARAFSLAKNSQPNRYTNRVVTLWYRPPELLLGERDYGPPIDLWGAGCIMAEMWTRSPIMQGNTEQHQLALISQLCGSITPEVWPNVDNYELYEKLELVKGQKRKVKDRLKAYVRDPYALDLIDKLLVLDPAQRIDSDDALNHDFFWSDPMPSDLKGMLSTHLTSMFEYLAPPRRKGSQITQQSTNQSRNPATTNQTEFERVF
Sequence of CDK9/Cyclin T1 complex (O60563 whole entry partner, species assumed, the tested form may be a part): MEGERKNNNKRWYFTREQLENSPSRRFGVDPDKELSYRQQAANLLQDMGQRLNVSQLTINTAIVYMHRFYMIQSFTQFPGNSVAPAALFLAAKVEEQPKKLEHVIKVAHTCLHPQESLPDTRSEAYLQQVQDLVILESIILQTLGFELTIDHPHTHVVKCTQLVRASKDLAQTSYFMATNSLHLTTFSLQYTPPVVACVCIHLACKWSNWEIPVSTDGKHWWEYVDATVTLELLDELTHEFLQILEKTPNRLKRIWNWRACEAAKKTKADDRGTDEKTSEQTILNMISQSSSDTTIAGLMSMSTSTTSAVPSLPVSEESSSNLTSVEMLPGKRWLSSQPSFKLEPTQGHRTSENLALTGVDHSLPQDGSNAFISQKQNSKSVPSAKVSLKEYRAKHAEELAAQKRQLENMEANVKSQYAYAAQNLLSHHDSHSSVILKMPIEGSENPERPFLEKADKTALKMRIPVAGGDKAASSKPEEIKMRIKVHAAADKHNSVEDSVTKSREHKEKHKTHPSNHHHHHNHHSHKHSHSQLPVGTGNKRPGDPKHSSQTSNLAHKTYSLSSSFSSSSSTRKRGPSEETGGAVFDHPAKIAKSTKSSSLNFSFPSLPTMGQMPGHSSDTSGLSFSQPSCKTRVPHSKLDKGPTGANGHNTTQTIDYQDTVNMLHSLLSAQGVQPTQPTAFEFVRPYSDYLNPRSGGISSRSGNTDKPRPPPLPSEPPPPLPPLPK
T1 sequence (Q9NYV4 686-1082, species assumed): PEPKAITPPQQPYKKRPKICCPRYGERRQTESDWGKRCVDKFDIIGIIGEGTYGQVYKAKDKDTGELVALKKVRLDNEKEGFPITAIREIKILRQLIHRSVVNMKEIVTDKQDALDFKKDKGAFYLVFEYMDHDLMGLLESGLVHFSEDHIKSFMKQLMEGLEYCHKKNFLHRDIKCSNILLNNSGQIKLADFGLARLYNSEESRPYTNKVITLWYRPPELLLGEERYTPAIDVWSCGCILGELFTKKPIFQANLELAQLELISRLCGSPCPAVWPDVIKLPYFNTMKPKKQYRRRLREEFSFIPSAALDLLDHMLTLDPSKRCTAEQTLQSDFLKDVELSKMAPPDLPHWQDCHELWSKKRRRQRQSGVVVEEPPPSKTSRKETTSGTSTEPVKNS
T1 sequence (O75909 whole entry partner, species assumed, the tested form may be a part): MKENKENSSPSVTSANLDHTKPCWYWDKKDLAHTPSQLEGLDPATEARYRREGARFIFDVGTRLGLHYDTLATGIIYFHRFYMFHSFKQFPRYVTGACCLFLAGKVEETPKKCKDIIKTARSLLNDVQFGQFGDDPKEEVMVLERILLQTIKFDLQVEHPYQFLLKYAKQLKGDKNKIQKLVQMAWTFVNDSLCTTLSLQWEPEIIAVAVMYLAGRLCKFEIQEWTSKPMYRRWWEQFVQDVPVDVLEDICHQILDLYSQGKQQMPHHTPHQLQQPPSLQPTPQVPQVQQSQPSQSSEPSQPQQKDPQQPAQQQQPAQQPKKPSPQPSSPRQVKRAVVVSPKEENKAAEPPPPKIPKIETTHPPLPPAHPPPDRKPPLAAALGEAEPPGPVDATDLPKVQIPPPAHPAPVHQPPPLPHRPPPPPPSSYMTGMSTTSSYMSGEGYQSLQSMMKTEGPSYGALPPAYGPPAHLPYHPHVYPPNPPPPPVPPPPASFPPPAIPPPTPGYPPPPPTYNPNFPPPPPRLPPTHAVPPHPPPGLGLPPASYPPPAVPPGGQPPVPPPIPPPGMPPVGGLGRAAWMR

Turning to `C#Cc1cnc(N[C@H]2CCCNC2)nc1-c1c[nH]c2ccccc12` [Compound 194], the IC50 is below 20 nM in the experiment on A673 cells (Homo sapiens, A673, 72 h); 0.2 to 5 µM against CDK2/Cyclin E1 complex; below 20 nM in experiment [1]; 0.2 to 5 µM at CDK9/Cyclin T1 complex; 200 to 5000 nM in experiment [2].
Regarding `C#Cc1cnc(N[C@H]2CCCNC2)nc1-c1cn(C)c2ccccc12` [Compound 195], the IC50 is 20 to 200 nM in the experiment with A673 cells; above 5 µM on CDK2/Cyclin E1 complex; 200 to 5000 nM in experiment [1]; above 5 µM on CDK9/Cyclin T1 complex; above 5000 nM in experiment [2].
Turning to `O=S1(=O)CCN(c2cccc3c(-c4nc(N[C@H]5CCCNC5)ncc4Cl)c[nH]c23)CC1` [Compound 196, 5-chloro-4-[7-(1,1-dioxo-1,4-thiazinan-4-yl)-1H-indol-3-yl]-N-[(3S)-3-piperidyl]pyrimidin-2-amine], the IC50 with A673 cells (Homo sapiens, A673, 72 h) was 20 to 200 nM; against CDK2/Cyclin E1 complex, 0.2 to 5 µM; in experiment [1] it was below 20 nM; on CDK9/Cyclin T1 complex it was 0.2 to 5 µM; in experiment [2], 200 to 5000 nM.
For the compound `N#Cc1cc2[nH]cc(-c3nc(N[C@H]4CCCNC4)ncc3C(F)(F)F)c2cc1F` [Compound 197, 5-fluoro-3-[2-[[(3S)-3-piperidyl]amino]-5-(trifluoromethyl)pyrimidin-4-yl]-1H-indole-6-carbonitrile], the IC50 with A673 cells (Homo sapiens, A673, 72 h) was below 20 nM; against CDK2/Cyclin E1 complex, 0.2 to 5 µM; in experiment [1], below 20 nM; against CDK9/Cyclin T1 complex, 0.2 to 5 µM; in experiment [2], 200 to 5000 nM.
As to `OC1CC=C(c2cccc3c(-c4nc(N[C@H]5CCCNC5)ncc4C(F)(F)F)c[nH]c23)CC1` (some centres unmarked) [Compound 198], the IC50 in the experiment on A673 cells was below 20 nM; against CDK2/Cyclin E1 complex it was 0.2 to 5 µM; in experiment [1] it was below 20 nM; at CDK9/Cyclin T1 complex, 0.2 to 5 µM; in experiment [2] it was 200 to 5000 nM.
For `CNS(=O)(=O)c1ccc2c(-c3nc(N[C@H]4CCCNC4)ncc3C(F)(F)F)c[nH]c2c1` [Compound 200, N-methyl-3-[2-[[(3S)-3-piperidyl]amino]-5-(trifluoromethyl)pyrimidin-4-yl]-1H-indole-6-sulfonamide], the IC50 with A673 cells (Homo sapiens, A673, 72 h) is 20 to 200 nM; on CDK2/Cyclin E1 complex, 0.2 to 5 µM; in experiment [1], below 20 nM; at CDK9/Cyclin T1 complex, 0.2 to 5 µM; in experiment [2], 200 to 5000 nM.
For `C[C@H]1CNC[C@@H](Nc2ncc(Cl)c(-c3c[nH]c4ccccc34)n2)C1` [Compound 201, 5-chloro-4-(1H-indol-3-yl)-N-[(3S,5R)-5-methyl-3-piperidyl]pyrimidin-2-amine], the IC50 is below 20 nM in the experiment with A673 cells (Homo sapiens, A673, 72 h); 0.2 to 5 µM against CDK2/Cyclin E1 complex; below 20 nM in experiment [1]; 0.2 to 5 µM against CDK9/Cyclin T1 complex; 20 to 200 nM in experiment [2].
For the compound `FC(F)(F)c1cnc(N[C@H]2CCCNC2)nc1-c1c[nH]c2cc(-c3ncc[nH]3)ccc12` [Compound 202, 4-[6-(1H-imidazol-2-yl)-1H-indol-3-yl]-N-[(3S)-3-piperidyl]-5-(trifluoromethyl) pyrimidin-2-amine], the IC50 in the experiment on A673 cells (Homo sapiens, A673, 72 h) is 20 to 200 nM; against CDK2/Cyclin E1 complex it was 0.2 to 5 µM; in experiment [1], below 20 nM; against CDK9/Cyclin T1 complex, 0.2 to 5 µM; in experiment [2] it was above 5000 nM.
On to `O[C@H]1CNC[C@@H](Nc2ncc(C(F)(F)F)c(-c3c[nH]c4ccccc34)n2)C1` [Compound 203, (3R,5S)-5-[[4-(1H-indol-3-yl)-5-(trifluoromethyl)pyrimidin-2-yl]amino]piperidin-3-ol], for which the IC50 in the experiment with A673 cells (Homo sapiens, A673, 72 h) was below 20 nM; on CDK2/Cyclin E1 complex, 0.2 to 5 µM; in experiment [1] it was below 20 nM; against CDK9/Cyclin T1 complex it was 0.2 to 5 µM; in experiment [2] it was 200 to 5000 nM.
Regarding `O=C(c1ccc2c(-c3nc(N[C@H]4CCCNC4)ncc3C(F)(F)F)c[nH]c2c1)N1CC[C@H](O)C1` [Compound 204, [(3S)-3-hydroxypyrrolidin-1-yl]-[3-[2-[[(3S)-3-piperidyl]amino]-5-(trifluoromethyl)pyrimidin-4-yl]-1H-indol-6-yl]methanone], the IC50 with A673 cells (Homo sapiens, A673, 72 h) is 200 to 5000 nM; at CDK2/Cyclin E1 complex it was above 5 µM; in experiment [1], below 20 nM; on CDK9/Cyclin T1 complex, above 5 µM; in experiment [2], 200 to 5000 nM.
